Publication PMC10788915, “Fragment Merging, Growing, and Linking Identify New Trypanothione Reductase Inhibitors for Leishmaniasis” (Journal of Medicinal Chemistry, 2024)
Where two headings read alike, the source gives them in different places.

Key:
[1] = Cytotoxicity assay on primary murine macrophages (MTT); type: cell-based, Balb/c mice; details: Balb/c, mouse, primary peritoneal exudate macrophages, read-out: primary murine macrophage CC50 ± SE (95% CI)
Procedure: (§1) To assess the cytotoxicity of compounds on mammalian macrophages, we tested all the compounds against both human leukemia monocyte cell line (THP-1 cells, ATCC) differentiated into macrophages by treatment with 40 ng/mL of phorbol myristate acetate (PMA; Sigma) for 48 h and peritoneal exudate macrophages harvested from Balb/c mice. […] Cell viability was evaluated using the MTT assay, and the concentration of the compound that produced a 50% reduction of cell viability in treated culture cells with respect to untreated ones (CC50) was determined by GraphPad Prism 5.0 (GraphPad Software Inc., San Diego, USA). […] The selectivity index for each compound was calculated as the ratio of cytotoxicity (CC50) in macrophages cells to activity (IC50) against Leishmania axenic amastigotes. The experiments were performed in triplicate, and two independent experiments were conducted.

[2] = molecular target: T1, Leishmania infantum TR (LiTR) (Leishmania infantum, UniProt A4HSF7); assay: LiTR inhibition kinetics, Ki from Dixon plots; type: biochemical; details: for mode of inhibition of LiTR: Dixon plots; for Ki: graphically determined from Dixon plots
T1 construct: The TbTR and LiTR genes were subcloned in a pET28b vector; 6-His (cleaved yes); made in house; host or cells: E. coli BL21(DE3), pET28b
Procedure: Enzymatic inhibition assays were performed in 50 mM HEPES pH 7.4, 40 mM NaCl at 25 °C using a JASCO V650 spectrophotometer equipped with a JASCO EHC 716 Peltier element to ensure controlled temperature. The first experiment was carried out using 50 nM LiTR, 10 or 100 μM compound to be tested, 150 μM trypanothione (trypanothione disulfide purchased from Bachem), and 100 μM NADPH (tetrasodium salt, purchased from Calbiochem). The best inhibitor candidates were then tested at concentrations ranging from 1 nM to 250 μM to determine the IC50. Assays were initiated upon addition of 100 μM NADPH to 50 nM LiTR or hGR (human glutathione reductase purchased from Sigma-Aldrich) in the presence of different concentration of compounds and 150 μM trypanothione. For both experiments, the oxidation of NADPH was followed as a decrease in absorbance at 340 nm. For each concentration of compound, the initial velocity of the NADPH oxidation was used to determine the percentage of LiTR activity with respect to that in the absence of any compound. The IC50 was determined upon fitting the residual activity of TR as a dose–response logistic equation defined as ymin + (ymax – ymin)/(1 + (x/IC50)^slope). […] The Ki was determined graphically upon linear fitting of data points for each trypanothione concentration. Data analysis was performed with QtiPlot 0.9.8.9 svn 2288, and graphs were made with Matplotlib. […]
assays were carried out at 25°C on a JASCO V650 spectrophotometer equipped with a JASCO EHC716 Peltier unit. Compound concentrations range from 1 to 6 µM. Briefly, 50 nM LiTR were mixed in 50 mM HEPES pH 7.4, 40 mM NaCl with each compound and various concentrations of trypanothione (reported on the figure). After 3-minute incubation at 25°C, the measurement was initiated upon addition of 100 µM NADPH. The oxidation of NADPH was followed as a decrease in absorbance at 340 nm. The inverse of the initial velocity of LiTR enzymatic reaction was reported as a function of the compound concentration. The intersection of the linear fitting of data at different trypanothione concentration provides a graphical determination of the inhibition constant K i. Each data point is the mean of three measurements.
(1 picture or pasted object on this page, not shown here)

[3] = system: L. infantum intramacrophage amastigotes; assay: Ex vivo inhibition of intramacrophage amastigote growth; type: cell-based, Leishmania infantum; details: for EC50: 72 h, murine macrophages infected with L. infantum amastigotes, read-out: intramacrophage amastigote EC50 ± SE (95% CI)
Procedure: Balb/c murine macrophages were used to perform ex vivo assay since the parasites infect them more effectively. Macrophages (5 × 10^5/well) were placed on glass coverslips within a 24-well culture plate and incubated with complete RPMI in a 5% CO2 incubator at 37 °C for 4 h to achieve cell adhesion. After this time, L. infantum amastigotes from spleens of previously infected hamsters were added onto the macrophages adhering to the coverslips at the ratio of 10:1 (parasites/macrophages). After 24 h of infection, the noninternalized amastigotes were removed by washes with RPMI. The infected macrophages were incubated with complete RPMI medium (control) or medium containing different concentrations of compounds in a 5% CO2 incubator at 37 °C for 72 h. Then, the coverslips were fixed with methanol, stained with Giemsa 10%, and analyzed by optical microscopy. The percentage of the infected macrophages and the number of amastigotes per infected macrophage were determined by random counting of 100 cells in each coverslip. Infection was judged to be adequate if more than 70% of the macrophages in the untreated control were infected. Activity for each compound was expressed as percentage of parasite burden reduction = infectivity index of treated cells/infectivity index of untreated cells. The infectivity index was calculated as follows: number of infected macrophages × mean number of amastigotes per macrophage / total number of macrophages. Nonlinear regression analysis (Graph-Pad Software Inc., San Diego, USA) was used for curve fitting and calculation of 50% inhibitory concentrations (IC50). The experiments were performed in triplicate, and two independent experiments were conducted.

[4] = system: human THP-1-derived macrophages; assay: Cytotoxicity assay on human THP-1-derived macrophages (MTT); type: cell-based
Procedure: as §1

[5] = as above; type: cell-based; details: human, THP-1 cells differentiated into macrophages with PMA, 72 h, MTT; read-out: human THP-1-derived macrophage CC50 ± SE (95% CI)
Procedure: as §1

T1 sequence (A4HSF7 1-491): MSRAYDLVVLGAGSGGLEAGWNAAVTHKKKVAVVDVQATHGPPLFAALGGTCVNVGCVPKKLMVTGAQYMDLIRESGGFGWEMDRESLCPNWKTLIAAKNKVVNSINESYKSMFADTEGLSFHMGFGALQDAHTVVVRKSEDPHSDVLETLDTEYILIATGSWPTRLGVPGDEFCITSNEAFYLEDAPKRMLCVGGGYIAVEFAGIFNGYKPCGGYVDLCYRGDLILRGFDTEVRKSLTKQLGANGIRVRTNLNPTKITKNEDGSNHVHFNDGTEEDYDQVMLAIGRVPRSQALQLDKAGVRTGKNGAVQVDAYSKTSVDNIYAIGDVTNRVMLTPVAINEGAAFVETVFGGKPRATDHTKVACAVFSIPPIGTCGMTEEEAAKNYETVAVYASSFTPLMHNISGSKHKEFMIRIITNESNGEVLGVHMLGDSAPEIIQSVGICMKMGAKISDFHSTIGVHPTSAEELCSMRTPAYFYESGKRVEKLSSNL

C[N+]1(CCCc2ccccc2)CCN(C(=O)N(Cc2ccc(C(=O)NCCc3ccc(F)cc3)o2)c2ccc(F)cc2)CC1.[I-] [Compound 9, 4-(((5-((4-Fluorophenethyl)carbamoyl)furan-2-yl)methyl)(4-fluorophenyl)carbamoyl)-1-methyl-1-(3-phenylpropyl)piperazin-1-ium Iodide]
CC50 at 72 h [1]: 29.9 ± 4.2 µM
mode of inhibition of LiTR [2]: linear competitive inhibition
Ki [2]: 5.5 ± 0.2 µM
EC50 ([3]; Leishmania infantum, Macrophage, in Mus musculus): 15.3 µM
EC50 [3]: 15.3 ± 2.3 µM
SI = human THP-1-derived macrophage CC50/axenic amastigote EC50 [4]: 3.7
CC50 at 72 h [5]: 38.4 ± 11 µM

O=C(NCCc1ccc(F)cc1)c1ccc(CN(C(=O)N2CC[N+](CCCc3ccccc3)(Cc3ccc(Cl)c(Cl)c3)CC2)c2ccc(F)cc2)o1.[I-] [Compound 10, 1-(3,4-Dichlorobenzyl)-4-(((5-((4-fluorophenethyl)carbamoyl)furan-2-yl)methyl)(4-fluorophenyl)carbamoyl)-1-(3-phenylpropyl)piperazin-1-ium Iodide]
CC50 at 72 h [1]: 12.5 ± 0.8 µM
mode of inhibition of LiTR [2]: linear competitive inhibition
Ki [2]: 0.2 µM
SI = human THP-1-derived macrophage CC50/axenic amastigote EC50 [4]: 1.4
CC50 at 72 h [5]: 16 ± 2.4 µM

O=C(NCCc1ccc(F)cc1)c1ccc(CNC(=O)N2CC[N+](CCCc3ccccc3)(Cc3ccc(Cl)c(Cl)c3)CC2)o1.[I-] [Compound 14, 1-(3,4-Dichlorobenzyl)-4-(((5-((4-fluorophenethyl)carbamoyl)furan-2-yl)methyl)carbamoyl)-1-(3-phenylpropyl)piperazin-1-ium Iodide]
CC50 at 72 h [1]: 12.7 ± 0.9 µM
mode of inhibition of LiTR [2]: linear competitive inhibition
Ki [2]: 0.8 ± 0.2 µM
intramacrophage amastigote reduction ([3]; at 12.5 μM): 40% of reduction at 12.5 μM
SI = human THP-1-derived macrophage CC50/axenic amastigote EC50 [4]: 2.3
CC50 at 72 h [5]: 20.5 ± 3.6 µM
